Measured values from patent US10201507B2, “Modulators of intracellular chloride concentration for treating fragile X syndrome” (NEUROCHLORE, priority 2012, dated 2019).
“Also recorded” adds a separate entry of the source.

Tests used:
[1] = test system: hippocampal slices; assay: Extracellular field potentials / spike frequency in hippocampal slices at P15 on isoguvacine; type: cell-based, mouse; details: for normalized spike frequency: P15, isoguvacine (10 μM)
From the text: Recording were made in the hippocampal slices using tungsten wire electrodes (diameter: 50 μm, California Fine Wire, Grover Beach, Calif.) and a low-noise multichannel DAM-8A amplifiers (WPI, GB; […]; gain: ×1000). The signals were digitized using an analogue-to-digital converter (Digidata 1440A, Axon Instruments, USA). pCLAMP 10.1, Clampfit 10.1 (Axon Instruments, USA), MiniAnalysis 6.03 (Synaptosoft, Decatur, Calif.) and Origin 7.5 (Microcal Software, USA) programs were used for the acquisition and analysis of the synaptic activities. Sampling interval per signal was 100 microseconds (10 kHz).
To test whether depolarizing actions of GABA were associated with neuronal excitation, the effect of the GABAA receptor agonist isoguvacine was tested. […] To test whether maternal treatment with bumetanide before delivery switches the action of GABA from excitatory to inhibitory in offsprings at P15, pregnant females were treated orally 1 day before delivery with bumetanide (2-2.5 mg/kg in drinking water) and juvenile offspring neurons recorded at P15. […] Therefore, excitatory actions of GABA during delivery produce long term deleterious effects on electrophysiological parameters of FXS juvenile neurons. In FXS mice, GABAergic inputs are excitatory and contribute to hyperexcitability of the network. Bumetanide decreases [Cl^−]i and consequently reduces contribution of excitatory GABAergic inputs in the overall network activity.

[2] = test system: CA3 pyramidal cells; assay: Single GABAA channel recordings of driving force of GABA (DFGABA) in hippocampal slices, drug applied to slice; type: cell-based, mouse; details: FXS neurons at P0 (birth); oxytocin 1 μM
Description: Mice lacking Fmr1 (referred to as Fmr1^−/−) were bred in our animal facility. […] For all experiments, Fmr1^−/− mice were used with wild-type littermates as a control group. The offspring were used for experiments at E18, P0, P2, P4, P7, P9, P15 and P30. Experiments were carried out on offspring of either sex and in a blind manner at E18 and P0.
Experiments were performed on fetuses and neonatal wild type and Fragile X mice from the embryonic day […] to the postnatal day P38 (term is E21). All of the research was performed in compliance with the national guidelines on human care and use of laboratory animals and approved by INSERM.
Hippocampal slices (300-500 μm thick) were prepared using a Microm tissue slicer (International GmbH, Germany) as described previously (Tyzio et al., 2006, 2008). Slices were kept in oxygenated (95% O2/5% CO2) artificial cerebrospinal fluid (ACSF) of the following composition (in mM): NaCl 126, KCl 3.5, CaCl2 2.0, MgCl2 1.3, NaHCO3 25, NaH2PO4 1.2 and glucose 11 (pH 7.4) at room temperature (20-22° C.) at least 1 hour before use.
For recordings, slices were placed into a conventional fully submerged chamber superfused with ACSF at a rate of 2-3 ml/min at room temperature. Patch clamp recordings from visually identified CA3 pyramidal cells in cell-attached configuration were performed using EPC-10 amplifier (HEKA Elektronik Dr. Schulze GmbH, Lambrecht/Pfalz, Germany). Patch pipette solution for recordings of single GABAA channels contained (in mM): NaCl 120, KCl 5, TEA-Cl 20, 4-aminopyridine 5, CaCl2 0.1, MgCl2 10, glucose 10, Hepes-NaOH 10 buffered to pH 7.2-7.3 and GABA 2 μM. Analysis of currents through single channels and current-voltage relationships were performed using Clampfit 9.2 (Axon Instruments, Union City, Calif.). Recordings were digitized (10 kHz) online with Digidata-1200 interface card (Axon Instruments, Union City, Calif.) and analyzed offline with Axon package, MiniAnalysis (S (Synaptsoft, Decatur, Ga.), and Origin (Microcal Software, Northampton, Mass.). […]

| Structure (SMILES) | normalized spike frequency ([1]; FXS mice) | normalized spike frequency ([1]; WT mice) | Effect on field potential recordings (in words) ([1]; naive neurons, P15, isoguvacine 2 μM) | Effect on DFGABA (in words) [2] |
| --- | --- | --- | --- | --- |
| O=C(O)C1=CCNCC1 [isoguvacine] | 165.8±13.5% | 67.9±6.1% | inhibited or did not affect field potential recordings | – |
| CC[C@H](C)[C@@H]1NC(=O)[C@H](Cc2ccc(O)cc2)NC(=O)[C@@H](N)CSSC[C@@H](C(=O)N2CCC[C@H]2C(=O)N[C@@H](CC(C)C)C(=O)NCC(N)=O)NC(=O)[C@H](CC(N)=O)NC(=O)[C@H](CCC(N)=O)NC1=O [oxytocin] | – | – | – | shift it to hyperpolarization; also recorded: shifted DFGABA |
